Assay results reported in patent US20260022143A1, “Cyclic Peptide Inhibitors of IL-23” (JANSSEN PHARMACEUTICA NV, priority 2022, published 2026).
Starred links: 1 amine or outer side, 2 acyl side, 3 side chain; linkers in the order of their positions; H or OH if unused. Positions of bridges follow the written chain, without caps; N, C: chain ends. Non-standard residues stand in square brackets, D forms with d. Residues, ends and D or L forms follow the SMILES beside them. *: point of attachment. Me3N+(CH2)2O(CH2)2O(CH2)2CO = C[N+](C)(C)CCOCCOCCC(=O)*; Trp(7-Me) = Cc1cccc2c(C[C@H](N)C(=O)O)c[nH]c12; X1 = CN(CC[C@H](N[*:1])C(=O)[*:2])[*:3]; 2Nal = N[C@@H](Cc1ccc2ccccc2c1)C(=O)O; AEF = NCCOc1ccc(C[C@H](N)C(=O)O)cc1; X82 = C[N+](C)(C)CCOCCOCCOCCOCCN*; 3Pal = N[C@@H](Cc1cccnc1)C(=O)O; Lys(Me) = CNCCCC[C@H](N)C(=O)O; X7 = COCCOCCOCCOCCOCCOCCC(=O)*; Pen = CC(C)(S)[C@H](N)C(=O)O; Thp = NC1(C(=O)O)CCOCC1; X3 = C[N+](C)(C)CCCCC*; Me2NCH2CH2 = CN(C)CC*; Sar = CNCC(=O)O

Assay: Exposed Polar Surface Area (EPSA)
Type: physicochemical
Conditions: SFC on Chirex 3014 column; sample 1 mM DMSO stock; read-out: EPSA
In short: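 Retention-based polarity: supercritical CO2 with 20 mM ammonium formate in MeOH (5–60%, 20%/min), Chirex 3014 column, 35 °C. Calibrated against 8 standards to give EPSA (Å^2); each sample measured twice.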

EPSA [A^2]	SMILES
144	Cc1cccc2c(C[C@@H]3NC(=O)[C@H]([C@@H](C)O)NC(=O)[C@H](CC(=O)N(C)C)NC(=O)[C@@H](NC(=O)CCOCCOCC[N+](C)(C)C)C(C)(C)SSC(C)(C)[C@@H](C(=O)N[C@@H](Cc4ccc(OCCN(C)C)cc4)C(=O)N[C@@H](Cc4ccc5ccccc5c4)C(=O)NC4(C(=O)N[C@@H](CCC(=O)N(C)C)C(=O)N[C@@H](CC(N)=O)C(=O)N[C@@H](Cc5cccnc5)C(=O)N(C)CC(=O)N(C)C)CCOCC4)NC(=O)[C@H](CCC(=O)N(C)C)NC3=O)c[nH]c12 [compound 154, cPEG3aCO-Pen(3)-N(N(Me)2)-T-7MeW-Q(N(Me)2)-Pen(3)-AEF(N(Me)2)-2Nal-THP-Q(N(Me)2)-N-3Pya-Sar-CON(Me)2] ({Me3N+(CH2)2O(CH2)2O(CH2)2CO}-[Pen]D(NMe2)T[Trp(7-Me)]E(NMe2)[Pen]Y(Me2NCH2CH2)[2Nal][Thp]E(NMe2)N[3Pal][Sar]-NMe2; disulfide 1-6)
150	CC(=O)NCCCC[C@@H]1NC(=O)[C@H](Cc2c[nH]c3c(C)cccc23)NC(=O)[C@H]([C@@H](C)O)NC(=O)[C@H](CC(N)=O)NC(=O)[C@@H](NC(C)=O)C(C)(C)SSC(C)(C)[C@@H](C(=O)N[C@@H](Cc2ccc(OCCN)cc2)C(=O)N[C@@H](Cc2ccc3ccccc3c2)C(=O)NC2(C(=O)N[C@@H](CCCCNC(C)=O)C(=O)N[C@@H](CC(N)=O)C(=O)N[C@@H](Cc3cccnc3)C(=O)N(C)CC(=O)NCCOCCOCCOCCOCC[N+](C)(C)C)CCOCC2)NC1=O [compound 155] (Ac-[Pen]NT[Trp(7-Me)]K(Ac)[Pen][AEF][2Nal][Thp]K(Ac)N[3Pal][Sar]-X82; disulfide 1-6 (inferred))
160	COCCOCCOCCOCCOCCOCCC(=O)N(C)CC[C@@H]1NC(=O)[C@H](Cc2c[nH]c3c(C)cccc23)NC(=O)[C@H]([C@@H](C)O)NC(=O)[C@H](CC(=O)N(C)C)NC(=O)[C@@H](NC(C)=O)C(C)(C)SSC(C)(C)[C@@H](C(=O)N[C@@H](Cc2ccc(OCCN)cc2)C(=O)N[C@@H](Cc2ccc3ccccc3c2)C(=O)NC2(C(=O)N[C@@H](CCC(=O)O)C(=O)N[C@@H](CC(N)=O)C(=O)N[C@@H](Cc3cccnc3)C(=O)N(C)CC(=O)N(C)C)CCOCC2)NC1=O [compound 158, MeCO-Pen(3)-N(N(Me)2)-T-7MeW-Dab(NMeCOmPEG6)-Pen(3)-AEF-2Nal-THP-E-N-3Pya-Sar-CON(Me)2] (Ac-[Pen]D(NMe2)T[Trp(7-Me)][X1](X7)[Pen][AEF][2Nal][Thp]EN[3Pal][Sar]-NMe2; disulfide 1-6)
154	CC(=O)N(C)CCCC[C@H](NC(=O)C1(NC(=O)[C@H](Cc2ccc3ccccc3c2)NC(=O)[C@H](Cc2ccc(OCCN)cc2)NC(=O)[C@H]2NC(=O)[C@H](CCC(=O)N(C)C)NC(=O)[C@H](Cc3c[nH]c4c(C)cccc34)NC(=O)[C@H]([C@@H](C)O)NC(=O)[C@H](CC(N)=O)NC(=O)[C@@H](NC(=O)CCOCCOCC[N+](C)(C)C)C(C)(C)SSC2(C)C)CCOCC1)C(=O)N[C@@H](CC(N)=O)C(=O)N[C@@H](Cc1cccnc1)C(=O)N(C)CC(N)=O [compound 168, cPEG3aCO-Pen(3)-N-T-7MeW-Q(N(Me)2)-Pen(3)-AEF-2Nal-THP-K(NMeAc)-N-3Pya-Sar-CONH2] ({Me3N+(CH2)2O(CH2)2O(CH2)2CO}-[Pen]NT[Trp(7-Me)]E(NMe2)[Pen][AEF][2Nal][Thp][Lys(Me)](Ac)N[3Pal][Sar]-NH2; disulfide 1-6)
154	CC(=O)N(C)CCCC[C@@H]1NC(=O)[C@H](Cc2c[nH]c3c(C)cccc23)NC(=O)[C@H]([C@@H](C)O)NC(=O)[C@H](CC(=O)N(C)C)NC(=O)[C@@H](NC(=O)CCOCCOCC[N+](C)(C)C)C(C)(C)SSC(C)(C)[C@@H](C(=O)N[C@@H](Cc2ccc(OCCN)cc2)C(=O)N[C@@H](Cc2ccc3ccccc3c2)C(=O)NC2(C(=O)N[C@@H](CCCCN(C)C(C)=O)C(=O)N[C@@H](CC(N)=O)C(=O)N[C@@H](Cc3cccnc3)C(=O)N(C)CC(N)=O)CCOCC2)NC1=O [compound 169, cPEG3aCO-Pen(3)-N(N(Me)2)-T-7MeW-K(NMeAc)-Pen(3)-AEF-2Nal-THP-K(NMeAc)-N-3Pya-Sar-CONH2] ({Me3N+(CH2)2O(CH2)2O(CH2)2CO}-[Pen]D(NMe2)T[Trp(7-Me)][Lys(Me)](Ac)[Pen][AEF][2Nal][Thp][Lys(Me)](Ac)N[3Pal][Sar]-NH2; disulfide 1-6)
153	CC(=O)N[C@@H]1C(=O)N[C@@H](CC(=O)N(C)C)C(=O)N[C@@H]([C@@H](C)O)C(=O)N[C@@H](Cc2c[nH]c3c(C)cccc23)C(=O)N[C@@H](CCCCN(C)C(C)=O)C(=O)N[C@H](C(=O)N[C@@H](Cc2ccc(OCCN)cc2)C(=O)N[C@@H](Cc2ccc3ccccc3c2)C(=O)NC2(C(=O)N[C@@H](CCCCN(C)C(C)=O)C(=O)N[C@@H](CC(N)=O)C(=O)N[C@@H](Cc3cccnc3)C(=O)N(C)CC(N)=O)CCOCC2)C(C)(C)SSC1(C)C [compound 182, MeCO-Pen(3)-N(N(Me)2)-T-7MeW-K(NMeAc)-Pen(3)-AEF-2Nal-THP-K(NMeAc)-N-3Pya-Sar-CONH2] (Ac-[Pen]D(NMe2)T[Trp(7-Me)][Lys(Me)](Ac)[Pen][AEF][2Nal][Thp][Lys(Me)](Ac)N[3Pal][Sar]-NH2; disulfide 1-6)
144	CC(=O)NCCCC[C@@H]1NC(=O)[C@H](Cc2c[nH]c3c(C)cccc23)NC(=O)[C@H]([C@@H](C)O)NC(=O)[C@H](CC(N)=O)NC(=O)[C@@H](NC(C)=O)C(C)(C)SSC(C)(C)[C@@H](C(=O)N[C@@H](Cc2ccc(OCCNC(=O)CCOCCOCC[N+](C)(C)C)cc2)C(=O)N[C@@H](Cc2ccc3ccccc3c2)C(=O)NC2(C(=O)N[C@@H](CNC(C)=O)C(=O)N[C@@H](CC(N)=O)C(=O)N[C@@H](Cc3cccnc3)C(=O)N(C)CC(N)=O)CCOCC2)NC1=O [compound 189]
137	CC(=O)N[C@@H]1C(=O)N[C@@H](CC(=O)N(C)C)C(=O)N[C@@H]([C@@H](C)O)C(=O)N[C@@H](Cc2c[nH]c3c(C)cccc23)C(=O)N[C@@H](CCCCN(C)C(C)=O)C(=O)N[C@H](C(=O)N[C@@H](Cc2ccc(OCCCCC[N+](C)(C)C)cc2)C(=O)N[C@@H](Cc2ccc3ccccc3c2)C(=O)NC2(C(=O)N[C@@H](CCCCN(C)C(C)=O)C(=O)N[C@@H](CC(N)=O)C(=O)N[C@@H](Cc3cccnc3)C(=O)N(C)CC(=O)N(C)C)CCOCC2)C(C)(C)SSC1(C)C [compound 190, MeCO-Pen(3)-N(N(Me)2)-T-7MeW-K(NMeAc)-Pen(3)-TMAPF-2Nal-THP-K(NMeAc)-N-3Pya-Sar-CON(Me)2] (Ac-[Pen]D(NMe2)T[Trp(7-Me)][Lys(Me)](Ac)[Pen]Y(X3)[2Nal][Thp][Lys(Me)](Ac)N[3Pal][Sar]-NMe2; disulfide 1-6 (inferred))
149	CC(=O)NCCCC[C@@H]1NC(=O)[C@H](Cc2c[nH]c3c(C)cccc23)NC(=O)[C@H]([C@@H](C)O)NC(=O)[C@H](CC(N)=O)NC(=O)[C@@H](NC(=O)CCCCC[N+](C)(C)C)C(C)(C)SSC(C)(C)[C@@H](C(=O)N[C@@H](Cc2ccc(OCCNC(=O)CCOCCOCC[N+](C)(C)C)cc2)C(=O)N[C@@H](Cc2ccc3ccccc3c2)C(=O)NC2(C(=O)N[C@@H](CNC(C)=O)C(=O)N[C@@H](CC(N)=O)C(=O)N[C@@H](Cc3cccnc3)C(=O)N(C)CC(N)=O)CCOCC2)NC1=O [compound 192]
